Data set [1] concerns RR/PTCL. Particulars: RR/PTCL historical benchmark, cited from earlier work.
A short description of data set [2]: tolerability, treatment related adverse events (Example 4). It counts as in vivo, human. The method, then:
The tolerability of the compounds of formula I, nivolumab, and a combination of the compounds of formula I and nivolumab were tested. The Phase 2 clinical dosage of 30 mg BIW of the compounds of formula I was administered.

Data set [3] relates to MC38 tumors. The data set is described as follows: NanoString nCounter PanCancer Immune Profiling Panel gene expression. Format: in vivo, C57BL/6 mice. The protocol: Gene expression studies were carried out using excised MC38 tumors (n=20 animals/treatment) isolated from syngeneic C57BL/6 mice treated for 7, 14, or 17 days with HBI-8000 (50 mg/kg, daily), anti-PD-1 (10 mg/kg, biweekly), or the combination of HBI-8000+anti-PD-1 (50 mg/kg, daily, 10 mg/kg, biweekly). At study termination, tumor samples from the treated mice were collected and fixed in formalin for 24 h and transferred to EtOH, followed by the preparation of formalin-fixed paraffin embedded blocks. Tumor sections (5-10 μm) were prepared from the formalin-fixed paraffin-embedded blocks, and total RNA was isolated from tissue scraped from 4 to 6 slides using the protocol recommended by NanoString Technologies (Seattle, Wash.). The nCounter PanCancer Immune Profiling panel developed and provided by NanoString Technologies was initially selected for expression analyses with an additional 20 genes added as a Panel Plus Codeset. The additional genes were predicted to be regulated by HBI-8000+/−ICI treatment. The nCounter assays were performed according to the manufacturer's instructions using the nCounter FLEX system.
Gene expression data were analyzed using nSolver software provided by NanoString Technologies, Inc. Raw data were normalized to the geometric mean values of the internal synthetic positive controls and geometric means of the housekeeping genes, as recommended by the manufacturer. The NanoString Technologies' nSolver Analysis Software 4.0 generated cell type scores, pathway scores, heatmaps, and individual gene normalized data from the nCounter PanCancer Immune Profiling Panel Plus dataset. The cell type score quantifies cell populations using marker genes for given cell types; by centering the mean at 0 for each cell type, immune cell type abundance can be compared on the same scale. The same method was used to generate immune-relevant pathway scores; summarizing the data from multiple genes in a pathway into a single score allowed for comparison between treatments for pathway analysis.
Normalized gene expression data for individual genes was exported from nSolver, annotated with percent of tumor growth inhibition (% TGI), and then imported into GraphPad Prism 7.04.
To investigate the mechanism of action of HBI-8000 in combination therapy with ICIs, larger groups of mice (n=20/group) were implanted with MC38 tumors to sufficiently power the statistical analysis. A baseline no-treatment tumor-bearing group was killed 1 day before initiating treatment. Mice in each treatment arm (n=20) were killed at days 7, 14, and 17 post treatment initiation. The NanoString nCounter PanCancer Immune Profiling Panel analysis allows for clustering of immune response-related genes into “gene sets” comprising a collection of genes selected as being representative of an element of the immune response (i.e., cell type, pathway), and provides a high level view of the antitumor response, which is depicted as scatterplots in FIG. 9A. While all the scores were elevated in the PD-1 Ab plus HBI-8000 combination agent cohorts, it is noteworthy that a subset of cell type scores was augmented by either PD-1 Ab or HBI-8000 alone as early as day 7.

In data set [4] the test system is MC38 tumors. The data set is described as follows: model of PD-1 antibody failure or stable disease, second-line therapy. It counts as in vivo. Conditions: second-line therapy in mice failing PD-1 Ab therapy, n=10/group, end of study. The protocol:
To establish a model of PD-1 antibody failure or stable disease, 150 mice were initially treated biweekly for 3 weeks with first-line anti-PD-1 Ab (5 mg/kg, intraperitoneal administration).
Human cancer patients receiving ICI therapy often experience a transient response or stable disease, but eventually develop resistance and progress, a challenge to which major efforts are directed. […] To explore the effect of HBI-8000 plus ICI on acquired resistance, we developed a model based on the repeated observations that tumor-bearing mice treated initially (first-line) with single agent PD-1 Ab or PD-L1 Ab display […] patterns of growth: approximately 20% experience rapid progression, approximately 20% experience complete regression, and approximately 60% experience stable tumor growth (defined as 3 consecutive tumor volume measurements with no significant change) or slow progression (relative to rapid growth and progression), which somewhat approximates the clinical situation. Using the above model, we treated a large cohort of tumor-bearing mice with PD-1 Ab alone. Once they reached the criteria for stable disease or slow progression, they were randomized into 6 treatment arms as indicated in FIG. 13. We compared the effect of halting treatment (Vehicle), continuing to treat with PD-1 Ab, or continuing PD-1 Ab in combination with HBI-8000. […]

Data set [5] deals with RR/ATL. Particulars: cited from earlier work; for ORR: RR/ATL historical benchmark.

As to `C#CCC(Cc1cnc2nc(N)nc(N)c2n1)c1ccc(C(=O)N[C@@H](CCC(=O)O)C(=O)O)cc1` (some centres unmarked) [Pralatrexate], the ORR in data set [1] was 45%.
Consider “NIVO: fully human monoclonal antibody directed against PD-1”, for which, in data set [2] (G1-2), the “Anemia, TRAE” value is recorded as 0 n (% of N); the “Diarrhea, TRAE” value is given as 4 (6) n (% of N); the “Fatigue, TRAE” value is reported as 0 n (% of N); the “Hypophospatemia, TRAE” value was 0 n (% of N). Further, in data set [2] (G1-2), the “Lymphocyte decrease, TRAE” value is 0 n (% of N); the “Neutrophil decrease, TRAE” value is on record as 0 n (% of N); the “Platelet decrease, TRAE” value is listed as 0 n (% of N); the “WBC decrease, TRAE” value is recorded as 0 n (% of N). Further, in data set [2] (G3), the “Anemia, TRAE” value is listed as 0 n (% of N); the “Diarrhea, TRAE” value is 1 (2) n (% of N); the “Fatigue, TRAE” value is recorded as 0 n (% of N); the “Hypophospatemia, TRAE” value was 0 n (% of N). In data set [2] (G3), the “Lymphocyte decrease, TRAE” value is reported as 0 n (% of N); the “Neutrophil decrease, TRAE” value was 0 n (% of N); the “Platelet decrease, TRAE” value is recorded as 0 n (% of N); the “WBC decrease, TRAE” value was 0 n (% of N). For the same molecule, in data set [2] (G4), the “Anemia, TRAE” value was 0 n (% of N); the “Diarrhea, TRAE” value is listed as 0 n (% of N); the “Fatigue, TRAE” value is 0 n (% of N); the “Hypophospatemia, TRAE” value is 0 n (% of N). Further, in data set [2] (G4), the “Lymphocyte decrease, TRAE” value was 0 n (% of N); the “Neutrophil decrease, TRAE” value is on record as 0 n (% of N); the “Platelet decrease, TRAE” value is 0 n (% of N); the “WBC decrease, TRAE” value is reported as 0 n (% of N). Also, in data set [2] (less frequent TRAEs), the “TSH increase, TRAE” value is on record as 5 n; the “amylase increase, TRAE” value was 4 n; the “lipase increase, TRAE” value is on record as 6 n; the “rash, TRAE” value stood at 10 n.
Take `Nc1cc(F)ccc1NC(=O)c1ccc(CNC(=O)/C=C/c2cccnc2)cc1` [HBI-8000, N-(2-amino-4-fluorophenyl)-4-[[[(2E)-1-oxo-3-(3-pyridinyl)-2-propen-1-yl]amino]methyl]benzamide]: in data set [2] (63 subjects with AE data), the “share of TRAEs associated with the agent” value is listed as 39%. Also, in data set [2] (G1-2), the “Anemia, TRAE” value is given as 14 (22) n (% of N); the “Diarrhea, TRAE” value is 0 n (% of N); the “Fatigue, TRAE” value is recorded as 0 n (% of N); the “Hypophospatemia, TRAE” value is recorded as 6 (10) n (% of N). Further, in data set [2] (G1-2), the “Lymphocyte decrease, TRAE” value is 0 n (% of N); the “Neutrophil decrease, TRAE” value was 8 (13) n (% of N); the “Platelet decrease, TRAE” value is recorded as 23 (37) n (% of N); the “WBC decrease, TRAE” value is recorded as 11 (17) n (% of N). Further, in data set [2] (G3), the “Anemia, TRAE” value was 1 (2) n (% of N); the “Diarrhea, TRAE” value is reported as 0 n (% of N); the “Fatigue, TRAE” value is 0 n (% of N); the “Hypophospatemia, TRAE” value is 4 (6) n (% of N). In data set [2] (G3), the “Lymphocyte decrease, TRAE” value is 0 n (% of N); the “Neutrophil decrease, TRAE” value is 5 (8) n (% of N); the “Platelet decrease, TRAE” value is 3 (5) n (% of N); the “WBC decrease, TRAE” value is 1 (2) n (% of N). Besides, in data set [2] (G4), the “Anemia, TRAE” value is listed as 0 n (% of N); the “Diarrhea, TRAE” value is on record as 0 n (% of N); the “Fatigue, TRAE” value is listed as 0 n (% of N); the “Hypophospatemia, TRAE” value is listed as 0 n (% of N). Further, in data set [2] (G4), the “Lymphocyte decrease, TRAE” value is recorded as 0 n (% of N); the “Neutrophil decrease, TRAE” value is reported as 1 (2) n (% of N); the “Platelet decrease, TRAE” value is 0 n (% of N); the “WBC decrease, TRAE” value is listed as 0 n (% of N). Further, the “cell type scores corresponding to dendritic cells, macrophages, NK cells, cytotoxic cells, and CD45 cells” value in data set [3] (as early as day 7) is on record as “augmented”. In addition, in data set [3] (day 17, vs. Control), the “directed global significance score, Adaptive” value was found to be 2; the “directed global significance score, Adhesion” value turned out to be 2; the “directed global significance score, Antigen processing” value came out at 1.8; the “directed global significance score, Apoptosis” value came out at 1.8. Besides, in data set [3] (day 17, vs. Control), the “directed global significance score, B cell Functions” value is listed as 1.5; the “directed global significance score, Basic Cell Function” value is given as 1.5; the “directed global significance score, CD molecules” value is reported as 1.7; the “directed global significance score, Cancer progression” value was 1.8. Moreover, in data set [3] (day 17, vs. Control), the “directed global significance score, Cell cycle” value worked out at 1.5; the “directed global significance score, Chemokine and Receptors” value worked out at 1.5; the “directed global significance score, Class I MHC mediated antigen process” value is reported as 1.5; the “directed global significance score, Complement pathway” value worked out at 0. Besides, in data set [3] (day 17, vs. Control), the “directed global significance score, Costimulation by the CD28 family” value turned out to be 1; the “directed global significance score, Cytokines and Receptors” value was found to be 1.8; the “directed global significance score, Dendritic cell Functions” value was 1.8; the “directed global significance score, Humoral” value is listed as 1.8. In data set [3] (day 17, vs. Control), the “directed global significance score, Inflammation” value was 1.8; the “directed global significance score, Innate” value was 1.8; the “directed global significance score, Interferon” value is 1.5; the “directed global significance score, Interleukin” value was 1.5. Moreover, in data set [3] (day 17, vs. Control), the “directed global significance score, Leukocyte Function” value amounted to 1.8; the “directed global significance score, MHC” value was 1.8; the “directed global significance score, MHC class II antigen presentation” value is 1.8; the “directed global significance score, Macrophage function” value is reported as 1.8. Moreover, in data set [3] (day 17, vs. Control), the “directed global significance score, Microglial Functions” value is 3; the “directed global significance score, NK cell Function” value is given as 1.5; the “directed global significance score, Pathogen Receptors” value is 1.3; the “directed global significance score, Senescence” value is reported as 1.3. Further, in data set [3] (day 17, vs. Control), the “directed global significance score, T-cell Functions” value was 1.5; the “directed global significance score, TLR” value is on record as 1.5; the “directed global significance score, TNF superfamily” value is listed as 1.5; the “directed global significance score, Transporter Function” value came to 1.8. Also, in data set [4], the “complete response (tumor regression)” value is recorded as 2 mice and the partial response was 3 mice.
Take `Nc1cc(F)ccc1NC(=O)c1ccc(CNC(=O)/C=C/c2cccnc2)cc1` [Epidaza (China)]: in data set [1] (value in brackets (PMS)), the “ORR (PMS)” value is on record as 35%. For the same molecule, the ORR in data set [1] is 28%.
`O=c1[nH]cnc2c([C@@H]3N[C@H](CO)[C@@H](O)[C@H]3O)c[nH]c12` [Forodesine]: in data set [1], the ORR was 22%.
Take `Nc1cccc2c1CN(C1CCC(=O)NC1=O)C2=O` (centres unmarked) [Lenalidomide]: in data set [5], the ORR is given as 42%. The “ORR in moga patients” value in data set [5] (RR/ATL patients who had received mogamulizumab) is 18%.

B1: Mogamulizumab: RR/ATL treatment listed as historical benchmark (antibody, chains of the INN, looked up, V domains shown)
VH: EVQLVESGGDLVQPGRSLRLSCAASGFIFSNYGMSWVRQAPGKGLEWVATISSASTYSYYPDSVKGRFTISRDNAKNSLYLQMNSLRVEDTALYYCGRHSDGNFAFGYWGQGTLVTVSS
VL: DVLMTQSPLSLPVTPGEPASISCRSSRNIVHINGDTYLEWYLQKPGQSPQLLIYKVSNRFSGVPDRFSGSGSGTDFTLKISRVEAEDVGVYYCFQGSLLPWTFGQGTKVEIK
In the case of B1, in data set [5], the ORR is 50%.

The values above are taken from patent publication US20220110924A1, “METHODS AND COMPOSITIONS FOR GENETIC MODULATION OF TUMOR MICROENVIRONMENTS” (HUYABIO International, LLC, priority 2020, published 2022).
